# “And” between values parts separate entries of the source, which are not always exact repeats. Identical values can stand only once.
# Experiments:
# [1] = biological target: T1, CYPA (Homo sapiens, UniProt P62937); assay: CYPA binding affinity (Kd1), SPR; details: steady state, (95% CI)
# T1 construct: His6-TEV-AviTag-CYPA (full-length); His6-TEV (N); made in house; host or cells: BL21(DE3) Escherichia coli
# Description: The binding affinity of compounds for CYPA (Kd1) was assessed by SPR on a Biacore 8K instrument as previously described.
# [2] = test system: Capan-1 cells; assay: Cellular ERK phosphorylation (pERK); format: cell-based; details: Homo sapiens; Capan-1 (KRAS^G12V PDAC); (95% CI)
# [3] = test system: Capan-1 cells; assay: Cell proliferation (CTG); format: cell-based; details: Homo sapiens; Capan-1, CTG; (95% CI)
# Description: (§1) Alternatively, cells were seeded in round-bottom ultra-low attachment 96-well plates, centrifuged at 1,000 rpm for 10 min to pellet the cells, and incubated overnight or up to 72 h to allow for 3D spheroid formation. […] Cell viability was determined by CellTiter-Glo 2.0 reagent (2D CTG) (Promega, G9243) or 3D CellTiter-Glo reagent (3D CTG) (Promega, G9683) according to the manufacturer’s protocols. Luminescence was detected using a SpectraMax M5 Plate Reader (Molecular Devices) of Perkin Elmer Enspire. Luminescence signal was normalized to vehicle-treated wells (normalized signal (%) = (luminescence (treated)/mean luminescence (vehicle)) × 100%). […] Data were plotted as log [inhibitor (M)], and a four-parameter sigmoidal concentration response model was fitted to the data to calculate EC50. […] Pa16C MEK1 mutant cells were evaluated by live-cell counting using Calcein AM and a SpectraMax i3X multi-mode detection platform (Molecular Devices). Growth percentages were calculated by normalizing the treated cell counts to their respective untreated cell counts.
# [4] = test system: A375 cells; assay: Cell proliferation (CTG); format: cell-based, human; details: Homo sapiens, A-375; A375, CTG; (95% CI)
# Description: as §1
# [5] = biological target: T2, KRAS^G12V (Homo sapiens, UniProt P01116+P62937, G12V); assay: RAS binding affinity of compound-bound CYPA (Kd2), SPR; parameters: His6-TEV (N); made in house; host or cells: BL21(DE3) Escherichia coli; details: steady state, (95% CI)
# [6] = Oral bioavailability in mice (LC-MS/MS of blood); format: in vivo; details: mouse, whole blood, read-out: Oral Bioavailability m%F
# [7] = test system: A375 cells; assay: Cellular ERK phosphorylation (pERK); format: cell-based, human; details: Homo sapiens, A-375; A375 (BRAF^V600E)
# [8] = biological target: T2, KRAS^G12V; assay: Biochemical RAS–RAF (BRAF RBD) disruption, TR-FRET; parameters: His6-TEV (N); made in house; host or cells: BL21(DE3) Escherichia coli
# Excerpt: Time-resolved fluorescence resonance energy transfer (TR-FRET) was used as previously described to assess disruption of the interactions between wild-type RAS or the mutant oncogenic RAS proteins and the RAS-binding domain of BRAF, and to assess the induction of interactions between the RAS proteins and CYPA[12].
# [9] = test system: Pa16C cells expressing MEK1 mutants; assay: Proliferation (Calcein AM) of Pa16C cells expressing MEK1 mutants; format: cell-based, human
# [10] = test system: KRAS^G12D PDAC cell lines; assay: Western blot time course of RAS signalling in KRAS^G12D PDAC cell lines; format: cell-based, human; details: KRAS^G12D PDAC cells in culture, 2 h to 48 h
# Description: Total ERK and vinculin were used as loading controls. […] Source Data
# Cells were lysed with MSD Tris Lysis Buffer (MSD, R60TX-2) or a buffer of 1% Triton X-100, 20 mM Tris-HCl, 150 mM NaCl, and 1 mM EDTA, both supplemented with protease and phosphatase inhibitors. Lysates were cleared by centrifugation and quantified by BCA assay (Pierce, 23225). […] Image Studio Lite (Version 5.2.5) and Image Lab (Version 6.1.0 build 7) software were used for data analysis.
structure (smiles),measurement,setting,value
CCn1c(-c2cccnc2[C@H](C)OC)c2c3cc(ccc31)-c1cccc(c1)C[C@H](NC(=O)[C@H](C(C)C)N(C)C(=O)[C@H]1CCN(C(C)=O)C1)C(=O)N1CCC[C@H](N1)C(=O)OCC(C)(C)C2 [Compound 1],Kd,[1],0.862 µM
same,EC50,[2],0.632 µM
same,EC50,[3],0.965 µM
same,EC50,[4],6.41 µM
same,Kd,[5],6.55 µM
same,bioavailability,[6],5%
same,EC50,[7],> 10 µM
same,EC50,[8],4.4 µM
"C#Cc1c(F)ccc2cc(O)cc(-c3ncc4c(N5CC6CCC(C5)N6)nc(OC[C@@]56CCCN5C[C@H](F)C6)nc4c3F)c12 [MRTX1133, reference compound]",Proliferation of Pa16C cells expressing MEK1 mutant constructs,"[9]; MEK1E102-I103del, inhibitor 0.046 nM",125.8 and 122.1 and 120.54 and 95.05
same,Proliferation of Pa16C cells expressing MEK1 mutant constructs,"[9]; MEK1E102-I103del, inhibitor 0.412 nM",113.2 and 113.4 and 113.54 and 82.15
same,Proliferation of Pa16C cells expressing MEK1 mutant constructs,"[9]; MEK1E102-I103del, inhibitor 1.235 nM",110 and 114.8 and 110.17 and 83.99
same,Proliferation of Pa16C cells expressing MEK1 mutant constructs,"[9]; MEK1E102-I103del, inhibitor 3.704 nM",89.5 and 104.7 and 87.18 and 77.13
same,Proliferation of Pa16C cells expressing MEK1 mutant constructs,"[9]; MEK1K57N, inhibitor 0.046 nM",113.3 and 92 and 123.41 and 119.36
same,Proliferation of Pa16C cells expressing MEK1 mutant constructs,"[9]; MEK1K57N, inhibitor 0.412 nM",108.9 and 110.1 and 130.35 and 129.87
same,Proliferation of Pa16C cells expressing MEK1 mutant constructs,"[9]; MEK1K57N, inhibitor 1.235 nM",119.4 and 130.2 and 127.87 and 133.27
same,Proliferation of Pa16C cells expressing MEK1 mutant constructs,"[9]; MEK1K57N, inhibitor 3.704 nM",112.2 and 126.4 and 116.3 and 122.06
same,Proliferation of Pa16C cells expressing MEK1 mutant constructs,"[9]; MEK1Q56P, inhibitor 0.046 nM",116.6 and 110 and 105 and 106.72
same,Proliferation of Pa16C cells expressing MEK1 mutant constructs,"[9]; MEK1Q56P, inhibitor 0.412 nM",113.89 and 123.5 and 112.2 and 128.92
same,Proliferation of Pa16C cells expressing MEK1 mutant constructs,"[9]; MEK1Q56P, inhibitor 1.235 nM",123.05 and 112.4 and 128.9 and 131.08
same,Proliferation of Pa16C cells expressing MEK1 mutant constructs,"[9]; MEK1Q56P, inhibitor 3.704 nM",108.45
same,Proliferation of Pa16C cells expressing MEK1 mutant constructs,"[9]; MEK1S218D/S222D, inhibitor 0.046 nM",106.52 and 116.35 and 117.97 and 101.1
same,Proliferation of Pa16C cells expressing MEK1 mutant constructs,"[9]; MEK1S218D/S222D, inhibitor 0.412 nM",107.39 and 112.33 and 125.31 and 99.77
same,Proliferation of Pa16C cells expressing MEK1 mutant constructs,"[9]; MEK1S218D/S222D, inhibitor 1.235 nM",101.82 and 118.84 and 117.94 and 98.18
same,Proliferation of Pa16C cells expressing MEK1 mutant constructs,"[9]; MEK1S218D/S222D, inhibitor 3.704 nM",93.55 and 118.16 and 86.21 and 93.79
same,Proliferation of Pa16C cells expressing MEK1 mutant constructs,"[9]; MEK1WT, inhibitor 0.046 nM",112.3 and 102.3 and 116.1 and 105.31 and 102.33
same,Proliferation of Pa16C cells expressing MEK1 mutant constructs,"[9]; MEK1WT, inhibitor 0.412 nM",119.4 and 93.5 and 109.72 and 103.89 and 97.19
same,Proliferation of Pa16C cells expressing MEK1 mutant constructs,"[9]; MEK1WT, inhibitor 1.235 nM",110 and 85.2 and 91.69 and 105.96 and 84.4
same,Proliferation of Pa16C cells expressing MEK1 mutant constructs,"[9]; MEK1WT, inhibitor 3.704 nM",88.3 and 70.7 and 61.19
same,pERK suppression over time,[10],rebounded by 48 h
